Data reported in patent US11203591B2, “Substituted 6-azabenzimidazole compounds” (Gilead Sciences, Inc., priority 2018, dated 2021).

Target: human HPK1 (MAP4K1) (Homo sapiens (Human), UniProt Q92918)
Assay: HPK1 IC50 Assay (TR-FRET peptide phosphorylation)
Format: biochemical
Details: recombinant HPK1 kinase domain 0.15 nM, 10 μM ATP, 1 μM STK S1 peptide; geometric mean of multiple experiments
In short: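 Readout: TR-FRET (665 nm/620 nm) after EDTA stop, detecting STK S1 peptide (1 μM) phosphorylation by 0.15 nM HPK1 kinase domain, ATP-pre-activated, at 10 μM ATP over 3 h, 25° C, pH 7.0. IC50s from four-parameter variable-slope fits, normalized to staurosporine and DMSO, averaged geometrically.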

human HPK1 (MAP4K1), sequence (Q92918 17-274): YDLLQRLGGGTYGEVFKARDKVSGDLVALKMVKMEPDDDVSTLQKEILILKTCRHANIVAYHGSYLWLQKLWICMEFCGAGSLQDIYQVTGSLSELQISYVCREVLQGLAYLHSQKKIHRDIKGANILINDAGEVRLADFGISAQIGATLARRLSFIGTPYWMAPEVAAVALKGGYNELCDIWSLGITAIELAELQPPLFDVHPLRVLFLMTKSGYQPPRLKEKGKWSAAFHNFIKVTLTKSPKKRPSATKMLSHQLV

Row | Compound | IC50 [nM]
1 | CC(C)n1cnc2cc(-c3cnc4c(c3)N([C@H]3C[C@@](C)(N5CCCC6(CC6)C5)C3)C(=O)C4(C)C)nc(Nc3cc(C(=O)NC4(C(F)F)CC4)c(Cl)c(F)c3F)c21 [Example 203, 2-Chloro-N-(1-(difluoromethyl)cyclopropyl)-5-((6-(3,3-dimethyl-1-((1s,3s)-3-methyl-3-(5-azaspiro[2.5]octan-5-yl)cyclobutyl)-2-oxo-2,3-dihydro-1H-pyrrolo[3,2-b]pyridin-6-yl)-3-isopropyl-3H-imidazo[4,5-c]pyridin-4-yl)amino)-3,4-difluorobenzamide] | 0.07
2 | CC(C)n1cnc2cc(-c3cnc4c(c3)N([C@H]3C[C@@](C)(N5CCCCC5)C3)C(=O)C4(C)C)nc(Nc3cc(C(=O)NC4(C(F)(F)F)CC4)c(Cl)c(F)c3F)c21 [Example 204, 2-Chloro-5-((6-(3,3-dimethyl-1-((1s,3s)-3-methyl-3-(piperidin-1-yl)cyclobutyl)-2-oxo-2,3-dihydro-1H-pyrrolo[3,2-b]pyridin-6-yl)-3-isopropyl-3H-imidazo[4,5-c]pyridin-4-yl)amino)-3,4-difluoro-N-(1-(trifluoromethyl)cyclopropyl)benzamide] | 0.2
3 | CC(C)n1cnc2cc(-c3cnc4c(c3)N([C@H]3C[C@@](C)(N5CC6CCC6C5)C3)C(=O)C4(C)C)nc(Nc3cc(C(=O)NC4(C(F)F)CC4)c(Cl)c(F)c3F)c21 (some centres unmarked) [Example 205, 5-((6-(1-((1s,3s)-3-(3-Azabicyclo[3.2.0]heptan-3-yl)-3-methylcyclobutyl)-3,3-dimethyl-2-oxo-2,3-dihydro-1H-pyrrolo[3,2-b]pyridin-6-yl)-3-isopropyl-3H-imidazo[4,5-c]pyridin-4-yl)amino)-2-chloro-N-(1-(difluoromethyl)cyclopropyl)-3,4-difluorobenzamide] | 0.1
4 | Cc1cc(F)c(Nc2nc(-c3cnc4c(c3)N([C@H]3C[C@@](C)(N5CCCCC5)C3)C(=O)C43CCOCC3)cc3ncn(C(C)C)c23)cc1C(=O)NC1(C(F)F)CC1 [Example 206, N-(1-(Difluoromethyl)cyclopropyl)-4-fluoro-5-((3-isopropyl-6-(1′-((1s,3s)-3-methyl-3-(piperidin-1-yl)cyclobutyl)-2′-oxo-1′,2,2′,3,5,6-hexahydrospiro[pyran-4,3′-pyrrolo[3,2-b]pyridin]-6′-yl)-3H-imidazo[4,5-c]pyridin-4-yl)amino)-2-methylbenzamide] | 0.07
5 | CC(C)n1cnc2cc(-c3cnc4c(c3)N([C@H]3C[C@@](C)(N5CCCCC5)C3)C(=O)C4(C)C)nc(Nc3cc(C(=O)NC4(C(F)F)CC4)c(Cl)c(F)c3F)c21 [Example 207, 2-Chloro-N-(1-(difluoromethyl)cyclopropyl)-5-((6-(3,3-dimethyl-1-((1s,3s)-3-methyl-3-(piperidin-1-yl)cyclobutyl)-2-oxo-2,3-dihydro-1H-pyrrolo[3,2-b]pyridin-6-yl)-3-isopropyl-3H-imidazo[4,5-c]pyridin-4-yl)amino)-3,4-difluorobenzamide] | 0.08
6 | Cc1c(C(=O)NC2(C(F)F)CC2)cc(Nc2nc(-c3cnc4c(c3)N([C@H]3C[C@@](C)(N5CCCOCC5)C3)C(=O)C4(C)C)cc3ncn(C(C)C)c23)c(F)c1F [Example 208, N-(1-(Difluoromethyl)cyclopropyl)-5-((6-(3,3-dimethyl-1-((1s,3s)-3-methyl-3-(1,4-oxazepan-4-yl)cyclobutyl)-2-oxo-2,3-dihydro-1H-pyrrolo[3,2-b]pyridin-6-yl)-3-isopropyl-3H-imidazo[4,5-c]pyridin-4-yl)amino)-3,4-difluoro-2-methylbenzamide] | 0.09
7 | Cc1c(C(=O)NC2(C(F)F)CC2)cc(Nc2nc(-c3cnc4c(c3)N([C@H]3C[C@@](C)(N5CC6CCC6C5)C3)C(=O)C4(C)C)cc3ncn(C(C)C)c23)c(F)c1F (some centres unmarked) [Example 209, 5-((6-(1-((1s,3s)-3-(3-Azabicyclo[3.2.0]heptan-3-yl)-3-methylcyclobutyl)-3,3-dimethyl-2-oxo-2,3-dihydro-1H-pyrrolo[3,2-b]pyridin-6-yl)-3-isopropyl-3H-imidazo[4,5-c]pyridin-4-yl)amino)-N-(1-(difluoromethyl)cyclopropyl)-3,4-difluoro-2-methylbenzamide] | 0.08
8 | CC(C)n1cnc2cc(-c3cnc4c(c3)N([C@H]3C[C@@](C)(N5CCCCC5)C3)C(=O)C43CCOCC3)nc(Nc3cc(C(=O)NC4(C(F)F)CC4)c(Cl)c(F)c3F)c21 [Example 210, 2-Chloro-N-(1-(difluoromethyl)cyclopropyl)-3,4-difluoro-5-((3-isopropyl-6-(1′-((1s,3s)-3-methyl-3-(piperidin-1-yl)cyclobutyl)-2′-oxo-1′,2,2′,3,5,6-hexahydrospiro[pyran-4,3′-pyrrolo[3,2-b]pyridin]-6′-yl)-3H-imidazo[4,5-c]pyridin-4-yl)amino)benzamide] | 0.08
9 | CC(C)n1cnc2cc(-c3cnc4c(c3)N([C@H]3C[C@@](C)(N5CCCCC5)C3)C(=O)C4(C)C)nc(Nc3cc(C(=O)NC4(CF)CC4)c(Cl)c(F)c3F)c21 [Example 211, 2-Chloro-5-((6-(3,3-dimethyl-1-((1s,3s)-3-methyl-3-(piperidin-1-yl)cyclobutyl)-2-oxo-2,3-dihydro-1H-pyrrolo[3,2-b]pyridin-6-yl)-3-isopropyl-3H-imidazo[4,5-c]pyridin-4-yl)amino)-3,4-difluoro-N-(1-(fluoromethyl)cyclopropyl)benzamide] | 0.1
10 | Cc1cc(F)c(Nc2nc(-c3cnc4c(c3)N([C@H]3C[C@@](C)(N5C6CCC5COC6)C3)C(=O)C4(C)C)cc3ncn(C(C)C)c23)cc1C(=O)NC1(C(F)F)CC1 [Example 212, 5-((6-(1-((1s,3s)-3-(3-Oxa-8-azabicyclo[3.2.1]octan-8-yl)-3-methylcyclobutyl)-3,3-dimethyl-2-oxo-2,3-dihydro-1H-pyrrolo[3,2-b]pyridin-6-yl)-3-isopropyl-3H-imidazo[4,5-c]pyridin-4-yl)amino)-N-(1-(difluoromethyl)cyclopropyl)-4-fluoro-2-methylbenzamide] | 0.3
11 | CC[C@]1(N2CCCCC2)C[C@@H](N2C(=O)C(C)(C)c3ncc(-c4cc5ncn(C(C)C)c5c(Nc5cc(C(=O)NC6(C(F)F)CC6)c(C)cc5F)n4)cc32)C1 [Example 213, N-(1-(Difluoromethyl)cyclopropyl)-5-((6-(1-((1r,3s)-3-ethyl-3-(piperidin-1-yl)cyclobutyl)-3,3-dimethyl-2-oxo-2,3-dihydro-1H-pyrrolo[3,2-b]pyridin-6-yl)-3-isopropyl-3H-imidazo[4,5-c]pyridin-4-yl)amino)-4-fluoro-2-methylbenzamide] | 0.3
12 | Cc1c(C(=O)NC2(C(F)F)CC2)cc(Nc2nc(-c3cnc4c(c3)N([C@H]3C[C@@](C)(N5CCCCC5)C3)CC4(C)C)cc3ncn(C(C)C)c23)c(F)c1F [Example 214, N-(1-(Difluoromethyl)cyclopropyl)-5-((6-(3,3-dimethyl-1-((1s,3s)-3-methyl-3-(piperidin-1-yl)cyclobutyl)-2,3-dihydro-1H-pyrrolo[3,2-b]pyridin-6-yl)-3-isopropyl-3H-imidazo[4,5-c]pyridin-4-yl)amino)-3,4-difluoro-2-methylbenzamide] | 0.1
13 | Cc1cc(F)c(Nc2nc(-c3cnc4c(c3)N([C@H]3C[C@@](C)(N5CCOCC5)C3)C(=O)C4(C)C)cc3ncn(C(C)C)c23)cc1C(=O)NC1(C(F)F)CC1 [Example 215, N-(1-(Difluoromethyl)cyclopropyl)-5-((6-(3,3-dimethyl-1-((1s,3s)-3-methyl-3-morpholinocyclobutyl)-2-oxo-2,3-dihydro-1H-pyrrolo[3,2-b]pyridin-6-yl)-3-isopropyl-3H-imidazo[4,5-c]pyridin-4-yl)amino)-4-fluoro-2-methylbenzamide] | 0.1
14 | Cc1cc(F)c(Nc2nc(-c3cnc4c(c3)N([C@H]3C[C@@](C)(N5CCCCC5)C3)C(=O)C4(C)C)cc3ncn(C(C)C)c23)cc1C(=O)NC1(C(F)F)CC1 [Example 216, N-(1-(Difluoromethyl)cyclopropyl)-5-((6-(3,3-dimethyl-1-((1s,3s)-3-methyl-3-(piperidin-1-yl)cyclobutyl)-2-oxo-2,3-dihydro-1H-pyrrolo[3,2-b]pyridin-6-yl)-3-isopropyl-3H-imidazo[4,5-c]pyridin-4-yl)amino)-4-fluoro-2-methylbenzamide] | 0.1
15 | Cc1c(C(=O)NCC(F)F)cc(Nc2nc(-c3cnc4c(c3)N([C@H]3C[C@@](C)(N5CCCCC5)C3)C(=O)C4(C)C)cc3ncn(C(C)C)c23)c(F)c1F [Example 217, N-(2,2-Difluoroethyl)-5-((6-(3,3-dimethyl-1-((1s,3s)-3-methyl-3-(piperidin-1-yl)cyclobutyl)-2-oxo-2,3-dihydro-1H-pyrrolo[3,2-b]pyridin-6-yl)-3-isopropyl-3H-imidazo[4,5-c]pyridin-4-yl)amino)-3,4-difluoro-2-methylbenzamide] | 0.06
16 | CC(C)n1cnc2cc(-c3cnc4c(c3)N([C@H]3C[C@@](C)(N5CCCCC5)C3)C(=O)C4(C)C)nc(Nc3cc(C(=O)NC4(C(F)F)CC4)ccc3F)c21 [Example 218, N-(1-(difluoromethyl)cyclopropyl)-3-((6-(3,3-dimethyl-1-((1s,3s)-3-methyl-3-(piperidin-1-yl)cyclobutyl)-2-oxo-2,3-dihydro-1H-pyrrolo[3,2-b]pyridin-6-yl)-3-isopropyl-3H-imidazo[4,5-c]pyridin-4-yl)amino)-4-fluorobenzamide] | 0.06
17 | Cc1cc(F)c(Nc2nc(-c3cnc4c(c3)N([C@H]3C[C@@](C)(N5CCCCC5)C3)CC4(C)C)cc3ncn(C(C)C)c23)cc1C(=O)NC1(C(F)F)CC1 [Example 219, N-(1-(Difluoromethyl)cyclopropyl)-5-((6-(3,3-dimethyl-1-((1s,3s)-3-methyl-3-(piperidin-1-yl)cyclobutyl)-2,3-dihydro-1H-pyrrolo[3,2-b]pyridin-6-yl)-3-isopropyl-3H-imidazo[4,5-c]pyridin-4-yl)amino)-4-fluoro-2-methylbenzamide] | 0.2
